Literature values in patent publication US6475530B1, “Methods and compositions for producing weight loss” (priority 2000, dated 2002).
Blank lines part the entries; values can stand above or below the molecule they belong to.

Columns and labels:
growth hormone = conditions: healthy postmenopausal women; 9 grams per day
[1] = mice; substance by itself
[2] = single dose of 300 mg. per day; healthy young adults
cyclooxygenase = conditions: single large dose

SMILES: N=C(N)NCCC[C@H](N)C(=O)O [L-arginine]
increase in growth hormone (growth hormone): 72%

time to gastric erosion [2]: 5 to 7 days
time for prostaglandin levels to return to baseline (cyclooxygenase): ≤ 6 h
SMILES: CC(=O)Oc1ccccc1C(=O)O [aspirin, acetylsalicylic acid]
weight loss [1]: no weight loss

SMILES: O=C(O)c1cccnc1 [nicotinic acid]
effect on free fatty acids (free fatty acids; given in the daytime): reduces free fatty acids temporarily, but then there is a rebound effect
duration of reduction in free fatty acids (free fatty acids; given nocturnally, constant infusion from 8:00 PM to 6 AM, without rebound effect): 24 h
